The values that follow come from patent US20230285282A1, “OCULAR IMPLANT CONTAINING AN ACTIVE INGREDIENT” (OCULAR THERAPEUTIX, INC., priority 2020, published 2023).

In brackets after ≈: the same amount, converted by molar mass. Where two headings read alike, the source gives them in different places.

The conditions of data set [1]: 1.25 mg intravitreal, rabbits; cited from earlier work.
In the next data set the test system is vascular leakage. The data set can be described thus: VEGF challenge, vascular leakage scored by fluorescein angiography. The class given is in vivo, Dutch belted rabbits. As to the method: For efficacy studies, 12 animals (with and without the implant) received an […] VEGF challenge (1 μg) 48 hours prior to selected time points (1, 2, 3, and 6 months after implant injection; 3 animals euthanized at each time point) to induce vascular proliferation and leakage. Rabbits were followed for 6 months from the administration of the implant. Eyes were imaged 48 hours post VEGF challenge using fluorescein angiography (FA) after intravenous injection of fluorescein and were graded on a scale from 0 to 4 (Table 9). Each eye was scored on the left and right side to account for non-uniformity in inflammatory response. FA scores were then averaged for each eye.
Animals from each group were […] challenged with VEGF (1 μg) 48 hours prior to selected time points (0.5, 1, 3, 6, 9, 12, 14, 16, 19, 20, and 21 months) to induce vascular proliferation and leakage. Eyes were imaged 48 hours post VEGF challenge time-points using fluorescein angiography (FA) and were graded on a scale from 0 (normal) to 4 (severe leakage) as described under Example 3.2.

For data set [2] the following is noted: cited from earlier work.
Another data set in a line: physchem. As to conditions: PBS, 37 °C, pH 7.2, aqueous buffer.
A further data set has as its system CYP3A4/5. Conditions: cited from earlier work.

As for Avastin®: anti-VEGF therapeutic, the half-life in data set [1] is 158 h. Also, in the data set with vascular leakage (1.25 mg Avastin only), the “duration of effect post injection” value was ≤ 3 months. Further, in the data set on vascular leakage (1.25 mg Avastin only (group 3)), the “vascular leakage after VEGF challenge” value is on record as “after 3 months vascular leakage re-occurred”.

For the compound ranibizumab: anti-VEGF agent, the “t1/2 in the human eye” value in data set [2] was “several days”.

As to `CNC(=O)c1ccccc1Sc1ccc2c(/C=C/c3ccccn3)n[nH]c2c1` [axitinib, N-methyl-2-[3-((E)-2-pyridin-2-yl-vinyl)-1H-indazol-6-ylsulfanyl]-benzamide], the “clearance half-life (t1/2)” value in data set [2] (Rugo et al. 2005) was “a few hours”. For the same compound, the solubility in “physchem” was 0.4 to 0.5 µg/mL (≈ 1.03 to 1.29 µM). Also, the “axitinib exposure (Cmax)” value in the data set on CYP3A4/5 (co-administration with oral ketoconazole) is given as “increased”; with CYP3A4/5 (co-administration with rifamycin), “decreased”.

In the case of aflibercept: anti-VEGF agent, in data set [2], the “t1/2 in the human eye” value is “several days”.

What is called half-life is the time needed for the level to fall by half in the phase considered. As usually defined, the solubility is the dissolved amount per volume that the medium holds.
